From ChEMBL document CHEMBL1121775, “Synthesis and antimalarial effects of N2-aryl-N4-[(dialkylamino)alkyl]- and N4-aryl-N2-[(dialkylamino)alkyl]-2,4-quinazolinediamines” (J Med Chem, 1981)
Several values for one entry are separate records, joined by “and”; a condition that tells them apart may be missing. Equal entries are not always repeated.

Experiments:
Plasmodium berghei [1] = test: Antimalarial effect against trophozoite-induced Plasmodium berghei in mice (Mus musculus) after 20 mg/kg subcutaneous dose; format: functional
Plasmodium berghei [2] = test: Antimalarial effect against trophozoite-induced Plasmodium berghei in mice (Mus musculus) at 320 mg/kg subcutaneous dose; format: functional
Plasmodium berghei [3] = test: (§1) Antimalarial effect against trophozoite-induced Plasmodium berghei in mice (Mus musculus) at 640 mg/kg subcutaneous dose; format: functional
Plasmodium berghei [4] = test: Antimalarial effect against trophozoite-induced Plasmodium berghei in mice (Mus musculus) at 160 mg/kg subcutaneous dose; format: functional
Plasmodium berghei [5] = test: Antimalarial effect against trophozoite-induced Plasmodium berghei in mice (Mus musculus) at 80 mg/kg subcutaneous dose; format: functional
Mus musculus [6] = test: Antimalarial effect against trophozoite induced Plasmodium berghei in mice (Mus musculus) at dosage of 160 mg/kg after subcutaneous administration; No. of mice (Mus musculus) surviving after 60 days 1; format: functional
Plasmodium berghei [7] = test: Antimalarial activity against trophozoite-induced Plasmodium berghei in mice (Mus musculus); format: functional
[8] = The ratio of SD90 of the quinine hydrochloride, to the SD90 of the test substance for the Dose of 91 […]; format: functional
Plasmodium berghei [9] = test: Antimalarial effect against trophozoite-induced Plasmodium berghei in mice (Mus musculus) after 40 mg/kg subcutaneous dose; format: functional
Plasmodium berghei [10] = test: as §1; format: functional; remark: listed apart in the source
Mus musculus [11] = test: Number of mice cured at a dose of 640 mg/kg sc; format: functional; conditions: route subcutaneous
[12] = The ratio of SD90 of the quinine hydrochloride, to the SD90 of the test substance for the Dose of mg/kg; format: functional
Mus musculus [13] = test: Number of mice cured at a subcutaneous dose of 320 mg/kg.; format: functional
Mus musculus [14] = test: Antimalarial effect against trophozoite-induced Plasmodium berghei in mice (Mus musculus) at dosage of 640 mg/kg after subcutaneous administration; No. of mice (Mus musculus) surviving after 60 days 4; format: functional
[15] = The ratio of SD90 of the quinine hydrochloride, to the SD90 of the test substance for the Dose of 9.2 mg/kg; format: functional
[16] = The ratio of SD90 of the quinine hydrochloride, to the SD90 of the test substance for the Dose of 35 mg/kg; format: functional
[17] = The ratio of SD90 of the quinine hydrochloride, to the SD90 of the test substance for the Dose of 63 mg/kg; format: functional
Mus musculus [18] = test: Number of mice cured at a subcutaneous dose of 160 mg/kg.; format: functional
Mus musculus [19] = test: Number of toxic deaths at a dose of 320 mg/kg; format: toxicity, organism-based; set-up: dose 320 mg/kg; conditions: in vivo
Plasmodium berghei [20] = test: Antimalarial activity against trophozoite-induced Plasmodium berghei in mice (Mus musculus) at 160 mg/kg subcutaneous dose; format: functional
Mus musculus [21] = test: Number of toxic deaths at a dose of 640 mg/kg; format: toxicity, organism-based; set-up: dose 640 mg/kg; conditions: in vivo
[22] = The ratio of SD90 of the quinine hydrochloride, to the SD90 of the test substance for the Dose of 47 mg/kg; format: functional
Mus musculus [23] = test: Number of mice cured at a dose of 320 mg/kg sc; format: functional; conditions: route subcutaneous
Mus musculus [24] = test: Number of mice cured at a subcutaneous dose of 640 mg/kg.; format: functional
[25] = The ratio of SD90 of the quinine hydrochloride, to the SD90 of the test substance for the Dose of 16 mg/kg; format: functional
[26] = The ratio of SD90 of the quinine hydrochloride, to the SD90 of the test substance for the Dose of 18.5 mg/kg; format: functional
[27] = The ratio of SD90 of the quinine hydrochloride, to the SD90 of the test substance for the Dose of 82 mg/kg; format: functional

| Structure (SMILES) | MST (Plasmodium berghei [1]) [days] | MST (Plasmodium berghei [2]) [days] | MST (Plasmodium berghei [4]) [days] | MST (Plasmodium berghei [5]) [days] | MST (Plasmodium berghei [4]; 160 mg/kg) | SD90 (Plasmodium berghei [7]) [mg/kg/day] | MST (Plasmodium berghei [9]; 40 mg/kg) | No. of survivals (Mus musculus [11]) | No. of survivals (Mus musculus [13]) | MST (Plasmodium berghei [9]) [days] | further results |
| --- | --- | --- | --- | --- | --- | --- | --- | --- | --- | --- | --- |
| CCN(CC)CCNc1nc(Nc2ccc(Cl)c(Cl)c2)c2ccccc2n1 | 0.2 | 3.2 | 0.9 | 0.2 |  |  |  |  |  |  | MST (Plasmodium berghei [3]; 640 mg/kg): 10.3 days and 5.4 days and 5.9 days; MST (Mus musculus [6]): 0.2 days |
| Brc1cccc(Nc2nc(NCCN3CCCC3)c3ccccc3n2)c1 | 0.2 | 5 |  | 0.4 | 4.4 days and 4 days | 91 |  |  |  |  | MST (Plasmodium berghei [3]; 640 mg/kg): 8.4 days and 8.1 days; Ratio [8]: 0.8 |
| CCN(CC)CCNc1nc(Nc2ccc(Cl)c(Cl)c2)nc2cc(N)ccc12 |  |  |  |  | 13.2 days and 13.5 days | 30.5 | 3.2 days and 3.5 days | 4 | 3 |  | MST (Plasmodium berghei [1]; 20 mg/kg): 0.6 days and 0.9 days; MST (Plasmodium berghei [2]; 320 mg/kg): 16.8 days and 16.9 days; MST (Plasmodium berghei [10]): 29.8 days; MST (Plasmodium berghei [5]; 80 mg/kg): 6 days and 6.3 days; Ratio [12]: 30.5 |
| CCN(CC)CCNc1nc(Nc2ccc(Cl)c(Cl)c2)nc2cc([N+](=O)[O-])ccc12 | 0.3 | 9.5 |  | 0.9 | 0.9 days and 1.1 days | 9.2 |  | 3 |  | 0.3 | MST (Plasmodium berghei [10]): 26.9 days; MST (Mus musculus [14]): 21.9 days; Ratio [15]: 8.1 |
| CSc1ccc(Nc2nc(NCCN3CCCC3)c3ccccc3n2)cc1 | 0.7 | 10.3 |  | 3.3 | 5.9 days and 4.7 days | 35 | 0.9 days and 0.3 days |  |  |  | Ratio [16]: 2.1 |
| CCN1CCCC(Nc2nc(Nc3ccc(Cl)c(Cl)c3)nc3cc(Cl)ccc23)C1 (stereo not drawn) | 0.1 | 0.3 |  | 0.3 |  | 63 |  |  |  |  | Ratio [17]: 1.2 |
| CCN(CC)CCNc1nc(Nc2ccc(Cl)cc2)nc2ccccc12 | 1.6 |  | 11.1 | 6.2 |  | 35 | 4.1 days and 4.6 days | 5 | 3 |  | No. of survivals (Mus musculus [18]): 2; No. of toxic deaths (Mus musculus [19]): 2; Ratio [16]: 2.1 |
| CCN(CC)CCNc1nc(Nc2ccc(Cl)c(Cl)c2)nc2ccc(N)cc12 |  |  |  | 6.8 |  | 47 |  | 3 | 5 | 3.8 | MST (Plasmodium berghei [1]; 20 mg/kg): 1.6 days and 2 days; MST (Plasmodium berghei [20]): 29.8 days; No. of survivals (Mus musculus [18]): 4; No. of toxic deaths (Mus musculus [21]): 2; Ratio [22]: 1.6 |
| CCN(CC)Cc1cc(Nc2nc(NCCN3CCCC3)c3ccccc3n2)ccc1O | 0.3 |  | 10.2 | 2.1 |  |  |  | 1 | 1 | 1.7 | No. of toxic deaths (Mus musculus [19]): 1; No. of toxic deaths (Mus musculus [21]): 1 |
| CN1CCCC1CCNc1nc(Nc2ccc(C(F)(F)F)cc2)nc2ccccc12 (stereo not drawn) | 1 | 15.5 | 10.5 | 3.2 |  | 16 |  |  |  | 1.2 | MST (Plasmodium berghei [10]): 25.8 days; No. of cured (Mus musculus [23]): 2; No. of cured (Mus musculus [24]): 4; Ratio [25]: 4.7 |
| CCN1CCCC(Nc2nc(Nc3cc(Cl)cc(Cl)c3)nc3cc(Cl)ccc23)C1 (stereo not drawn) |  |  | 0.4 |  |  | 73 |  |  |  | 0.2 | MST (Plasmodium berghei [3]): 1.6 days; Ratio [12]: 73 |
| CN1CCCC1CCNc1nc(Nc2ccc(Cl)c(Cl)c2)nc2ccc(Cl)cc12 (stereo not drawn) | 0.5 | 14.2 |  | 2.7 | 6.1 days and 2.5 days | 18.5 | 1.1 days and 0.5 days |  | 2 |  | MST (Plasmodium berghei [3]): 13.6 days; Ratio [26]: 4 |
| CN(C)C1CCC(Nc2nc(Nc3ccc(Cl)c(Cl)c3)nc3ccccc23)CC1 (stereo in doubt; 24) |  |  |  | 6.4 |  | 9.2 | 4.8 days and 3.8 days |  | 3 |  | MST (Plasmodium berghei [1]; 20 mg/kg): 0.4 days; MST (Plasmodium berghei [2]; 320 mg/kg): 24.3 days; MST (Plasmodium berghei [20]; 160 mg/kg): 20.1 days and 16.5 days; No. of survivals (Mus musculus [18]; 160 mg/kg): 1 and 2; Ratio [15]: 8.2 |
| FC(F)(F)c1cc(Nc2nc(NCCN3CCCC3)c3ccccc3n2)cc(C(F)(F)F)c1 |  |  | 0.2 |  |  | 105 |  |  |  | 0.2 | MST (Plasmodium berghei [3]): 1 days; Ratio [12]: 105 |
| CN1CCCC1CCNc1nc(Nc2ccc(Cl)c(Cl)c2)c2ccccc2n1 (stereo not drawn) | 0.3 | 11.2 |  |  | 6.9 days and 7.1 days |  |  | 1 | 1 | 0.5 | MST (Plasmodium berghei [5]; 80 mg/kg): 0.5 days and 0.7 days; No. of toxic deaths (Mus musculus [19]): 1 and 2; No. of toxic deaths (Mus musculus [21]): 2 |
| CN(C)C1CCC(Nc2nc(Nc3ccc(Cl)c(Cl)c3)c3ccccc3n2)CC1 (stereo not drawn) | 0.3 | 9.9 | 12.9 | 7.9 |  |  | 4.1 days and 3.7 days | 3 | 2 |  | MST (Plasmodium berghei [20]): 12.6 days; No. of survivals (Mus musculus [18]): 2; No. of toxic deaths (Mus musculus [21]): 2 |
| CCN(CC)CCNc1nc(Nc2ccc(Cl)c(Cl)c2)nc2cc(NCc3ccc(Cl)c(Cl)c3)ccc12 |  |  |  |  | 1.3 days and 1 days and 0.7 days | 82 | 0.1 days and 0.2 days and 0.3 days |  |  |  | MST (Plasmodium berghei [1]; 20 mg/kg): 0.1 days and 0.2 days and 0.3 days; MST (Plasmodium berghei [2]; 320 mg/kg): 1.7 days and 2 days and 2.5 days; MST (Plasmodium berghei [3]): 8.9 days; MST (Plasmodium berghei [5]; 80 mg/kg): 0.3 days and 0.6 days; Ratio [27]: 0.9 |
| CSc1ccc(Nc2nc(NCCCN3CCCC3)c3ccccc3n2)cc1 |  |  | 6.8 |  |  | 47 |  |  |  | 1 | No. of toxic deaths (Mus musculus [21]): 5; Ratio [22]: 1.6 |
